# *1 amine or outer side, *2 acyl side, *3 side chain or, on linkers, in order; H or OH if unused. Where a SMILES comes first, the peptide text is derived from it. Bridges are numbered along the chain shown (N, C = ends). [ ]: non-standard residue; d: D form. Ala(benzothiazol-2-yl) = N[C@@H](Cc1nc2ccccc2s1)C(=O)O; Trp(7-aza) = N[C@@H](Cc1c[nH]c2ncccc12)C(=O)O; X7 = O=C([C@H](Cc1cc[nH]c1)N[*:1])[*:2]; mXylylene = c1cc(C[*:1])cc(C[*:2])c1; Val(3-OH) = CC(C)(O)[C@H](N)C(=O)O; Chg = N[C@H](C(=O)O)C1CCCCC1; Tle = CC(C)(C)[C@H](N)C(=O)O; αMeP = C[C@@]1(C(=O)O)CCCN1; NMeA = CN[C@@H](C)C(=O)O; Nva = CCC[C@H](N)C(=O)O; Ahx = NCCCCCC(=O)O; GABA = NCCCC(=O)O; Mpa = O=C(O)CCS
# Molecular target: human PCSK9 / human LDLR EGFa domain interaction (Homo sapiens, UniProt Q8NBP7)
# Sequence (Q8NBP7 153-692): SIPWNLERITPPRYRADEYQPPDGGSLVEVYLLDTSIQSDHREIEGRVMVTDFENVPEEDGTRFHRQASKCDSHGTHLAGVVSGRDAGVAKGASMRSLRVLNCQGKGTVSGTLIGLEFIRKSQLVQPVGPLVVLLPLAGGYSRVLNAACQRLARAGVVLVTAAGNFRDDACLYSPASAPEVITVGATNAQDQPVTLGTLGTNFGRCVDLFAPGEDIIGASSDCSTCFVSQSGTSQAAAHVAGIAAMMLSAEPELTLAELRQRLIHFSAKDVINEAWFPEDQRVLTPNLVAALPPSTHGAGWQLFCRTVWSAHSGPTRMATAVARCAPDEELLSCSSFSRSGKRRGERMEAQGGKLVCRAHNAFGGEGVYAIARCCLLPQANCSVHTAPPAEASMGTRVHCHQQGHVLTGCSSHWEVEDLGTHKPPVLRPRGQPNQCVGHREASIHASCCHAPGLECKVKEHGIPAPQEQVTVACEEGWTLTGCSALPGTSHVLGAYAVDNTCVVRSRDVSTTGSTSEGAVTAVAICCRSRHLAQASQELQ
# Sequence (Q8NBP7 31-152 partner limits assumed): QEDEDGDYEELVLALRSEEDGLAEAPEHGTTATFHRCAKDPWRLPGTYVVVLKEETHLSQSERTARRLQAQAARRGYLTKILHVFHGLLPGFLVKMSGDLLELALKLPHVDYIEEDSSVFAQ
# Assay: TR-FRET assay of inhibition of the PCSK9-LDLR protein-protein interaction
# Format: binding
# Details: 20 nM biotinylated human PCSK9 + 20 nM his-tagged human LDLR EGFa domain, 2 hours room temperature
# Procedure: A time-resolved fluorescence resonance energy (TR-FRET) assay was used to measure inhibition of the PCSK9-LDLR protein-protein interaction. Briefly, 20 nM avitag-biotinylated human PCSK9 was incubated with 20 nM his-tagged human LDLR EGFa domain in the presence of 5 nM LANCE Ulight Streptavidin (Perkin Elmer) and 5 nM europium-Anti-6×His (Perkin Elmer) for 2 hours covered at room temperature in buffer containing 50 mM HEPES, 150 mM NaCl, 5 mM CaCl2, 0.01% BSA and 0.01% Surfactant P20. Compounds were tested in dose-response and concentrations giving half-maximal inhibition calculated using a 4-parameter fit equation.
row,IC50,Compound
1,0.1 to 1 µM,CCC[C@@H]1NC(=O)[C@H](Cc2c[nH]c3ncccc23)NC(=O)[C@H]([C@@H](C)O)NC(=O)[C@H](Cc2cnc[nH]2)NC(=O)[C@H](Cc2ccc(O)cc2)NC(=O)[C@H](C(C)(C)C)NC(=O)CCSCc2cccc(c2)CSC[C@H](C(N)=O)NC(=O)[C@H](C(C)(C)O)NC(=O)[C@H](CCC)NC(=O)[C@H](Cc2ccc(O)cc2)NC(=O)[C@H](CCC(=O)O)NC1=O [Compound 044] ([Mpa][Tle]YHT[Trp(7-aza)][Nva]EY[Nva][Val(3-OH)][dC]-NH2; linker 1-12 via mXylylene)
2,0.1 to 1 µM,CCC[C@@H]1NC(=O)[C@H](Cc2nc3ccccc3s2)NC(=O)[C@H]([C@@H](C)O)NC(=O)[C@H](Cc2cnc[nH]2)NC(=O)[C@H](Cc2ccc(O)cc2)NC(=O)[C@H](C(C)(C)C)NC(=O)CCSCc2cccc(c2)CSC[C@@H](C(N)=O)NC(=O)[C@H]([C@@H](C)O)NC(=O)[C@H](CCC)NC(=O)[C@H](Cc2ccc(O)cc2)NC(=O)[C@H](CCC(=O)O)NC1=O [Compound 084] ([Mpa][Tle]YHT[Ala(benzothiazol-2-yl)][Nva]EY[Nva]TC-NH2; linker 1-12 via mXylylene)

# The next lines start with the compound.
row,Compound,IC50
1,CCC[C@@H]1NC(=O)[C@H](Cc2c[nH]c3ncccc23)NC(=O)[C@H]([C@@H](C)O)NC(=O)[C@H](Cc2c[nH]cn2)NC(=O)[C@H](Cc2ccc(O)cc2)NC(=O)[C@H](C(C)(C)C)NC(=O)CCSCc2cccc(c2)CSC[C@@H](C(N)=O)NC(=O)[C@H]([C@@H](C)O)NC(=O)[C@]2(C)CCCN2C(=O)[C@H](Cc2ccc(O)cc2)NC(=O)[C@H](CCC(=O)O)NC1=O [Compound 075] ([Mpa][Tle]YHT[Trp(7-aza)][Nva]EY[αMeP]TC-NH2; linker 1-12 via mXylylene),0.1 to 1 µM
2,CCC[C@@H]1NC(=O)[C@H](Cc2c[nH]c3ncccc23)NC(=O)[C@H]([C@@H](C)O)NC(=O)[C@H](Cc2cc[nH]c2)NC(=O)[C@H](Cc2ccc(O)cc2)NC(=O)[C@H](C(C)(C)C)NC(=O)CCSCc2cccc(c2)CSC[C@@H](C(N)=O)NC(=O)[C@]2(C)CCCN2C(=O)[C@H](Cc2ccc(O)cc2)NC(=O)[C@H](CCC(=O)O)NC1=O [Compound 076] ([Mpa][Tle]Y[X7]T[Trp(7-aza)][Nva]EY[αMeP]C-NH2; linker 1-11 via mXylylene),0.1 to 1 µM
3,CCC[C@@H]1NC(=O)[C@H](Cc2c[nH]c3ncccc23)NC(=O)[C@H]([C@@H](C)O)NC(=O)[C@@H]2CCCCNC(=O)CC[C@@H](NC1=O)C(=O)N[C@@H](Cc1ccc(O)cc1)C(=O)N[C@@H](C1CCCCC1)C(=O)N[C@@H]([C@@H](C)O)C(=O)NCCCC(=O)NCCCCCC(=O)N[C@@H](C(C)(C)C)C(=O)N[C@@H](Cc1ccc(O)cc1)C(=O)N2 [Compound 117] (cyclo([Ahx][Tle]YKT[Trp(7-aza)][Nva][dE]Y[Chg]T[GABA]); lactam 4-8),0.1 to 1 µM
4,CCC[C@@H]1NC(=O)[C@H](Cc2c[nH]c3ncccc23)NC(=O)[C@H]([C@@H](C)O)NC(=O)[C@H](CCCCN)NC(=O)[C@H](Cc2ccc(O)cc2)NC(=O)[C@H](C(C)(C)C)NC(=O)CCSCc2cccc(c2)CSC[C@@H](C(N)=O)NC(=O)[C@H]([C@@H](C)O)NC(=O)[C@H](C2CCCCC2)NC(=O)[C@H](Cc2ccc(O)cc2)NC(=O)[C@H](CCC(=O)O)NC1=O [Compound 046] ([Mpa][Tle]YKT[Trp(7-aza)][Nva]EY[Chg]TC-NH2; linker 1-12 via mXylylene),0.1 to 1 µM
5,CCC[C@H](NC(C)=O)C(=O)N[C@H]1CSCc2cccc(c2)CSC[C@@H](C(N)=O)NC(=O)[C@H]([C@@H](C)O)NC(=O)[C@H](C2CCCCC2)NC(=O)[C@H](Cc2c[nH]c3ncccc23)NC(=O)[C@H](Cc2cnc[nH]2)NC(=O)[C@H](CCC(=O)O)NC(=O)[C@H](Cc2c[nH]c3ncccc23)NC(=O)[C@H]([C@@H](C)O)NC(=O)[C@H](C)N(C)C(=O)[C@H](Cc2ccc(O)cc2)NC(=O)[C@H](C(C)(C)C)NC1=O [Compound 006] (Ac-[Nva]C[Tle]Y[NMeA]T[Trp(7-aza)]EH[Trp(7-aza)][Chg]TC-NH2; linker 2-13 via mXylylene),1 to 12.1 µM

# From patent US11505575B2, “Cyclic polypeptides for PCSK9 inhibition” (Merck Sharp & Dohme LLC, priority 2018, dated 2022)
